Laboratory results from patent publication US9951097B2, “Antibacterial compounds targeting isoprenoid biosynthesis” (priority 2012, dated 2018).
Values after ≈ are worked out from the molar mass of the structure shown. “Also recorded” adds a separate entry of the source. Read-outs that look alike come from different tables or passages of the source.

How the values were obtained:
[1] = test system: synthetic DNA dodecamer duplex d(CGCGAATTCGCG)2; assay: DNA binding by differential scanning calorimetry (DSC)
[2] = test system: Mycobacterium tuberculosis
[3] = molecular target: T1, S. aureus UPPS (Staphylococcus aureus, UniProt P60477); assay: biochemical
T1 construct: His-tag (pET-32 Xa/LIC vector tag) (N, cleaved yes); made in house; host or cells: E. coli BL21 (DE3)
T1 sequence (P60477 1-256): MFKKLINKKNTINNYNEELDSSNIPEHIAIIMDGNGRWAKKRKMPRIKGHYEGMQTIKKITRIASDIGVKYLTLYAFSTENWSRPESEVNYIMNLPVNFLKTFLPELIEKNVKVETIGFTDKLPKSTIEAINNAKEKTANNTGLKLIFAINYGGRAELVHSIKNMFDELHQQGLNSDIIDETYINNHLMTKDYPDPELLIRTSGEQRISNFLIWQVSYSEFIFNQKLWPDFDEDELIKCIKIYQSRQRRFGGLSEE
Experimental: (§1) Methods. EcUPPS and SaUPPS were expressed and purified as described previously (Durrant et al., Chem Biol Drug Des 2011, 78(3):323-332). UPPS inhibition assays were carried out as described previously, and UPPS/inhibitor crystals were obtained via soaking as described previously (Guo et al., Proc Natl Acad Sci USA 2007, 104(24):10022-10027). Structure determinations and refinements were carried out as described below in Example 3. […] Full synthesis and characterization details for all compounds investigated crystallographically are provided in Example 1 above. In vivo experiments used female BALB/c mice infected intraperitoneally with S. aureus (USA200), as described in detail in Example 3 below. Bacterial cell growth inhibition assays were carried out as described previously (Zhang et al., ACS Med Chem Lett 2012, 3(5):402-406).
(§2) UPPS Inhibition Assays. E. coli UPPS and S. aureus UPPS inhibition assays were carried out as described previously (Durrant et al., Chem Biol Drug Des 2011, 78(3):323-332). […] The IC50 values were obtained by fitting the inhibition data to a standard rectangular hyperbolic dose-response function in GraphPad PRISM 4.0 software (Graphpad Software, San Diego, Calif.). […] IPP and 0.01% Triton X-100.

[4] = test system: S. aureus (USA300 strain); assay: S. aureus cell growth inhibition; type: cell-based; settings: USA300, MRSA strain; for MIC90: Staphylococcus aureus
Experimental: (§3) Methods. EcUPPS and SaUPPS were expressed and purified as described previously (Durrant et al., Chem Biol Drug Des 2011, 78(3):323-332). UPPS inhibition assays were carried out as described previously, and UPPS/inhibitor crystals were obtained via soaking as described previously (Guo et al., Proc Natl Acad Sci USA 2007, 104(24):10022-10027). Structure determinations and refinements were carried out as described below in Example 3. For the eleven structures reported, the resolution was on average 1.88 Å (±0.29 Å) and Rfree was on average 24.6% (±3.9%). Full synthesis and characterization details for all compounds investigated crystallographically are provided in Example 1 above. In vivo experiments used female BALB/c mice infected intraperitoneally with S. aureus (USA200), as described in detail in Example 3 below. Bacterial cell growth inhibition assays were carried out as described previously (Zhang et al., ACS Med Chem Lett 2012, 3(5):402-406).
(§4) Cell growth inhibition. The growth of S. aureus (USA300 strain) and determination of MIC values were as described previously (Molohon et al., ACS chemical biology 2011, 6(12):1307-1313). E. coli growth and construction of isobolograms were also carried out basically as described previously (Leon et al., J Med Chem 2006, 49(25):7331-7341).

[5] = test system: E. coli; assay: E. coli cell growth inhibition; type: cell-based; settings: for MIC90: Escherichia coli
Experimental: as §3, §4

[6] = molecular target: T2, E. coli UPPS (Escherichia coli, UniProt P60472); assay: E. coli UPPS inhibition assay; type: biochemical
T2 construct: His-tag (cleaved yes); made in house; host or cells: E. coli BL21 (DE3)
Experimental: as §1, §2

[7] = test system: S. aureus USA200 Sanger 252 (MRSA) strain
[8] = molecular target: UPPS; assay: UPPS inhibition, enzyme species not given; type: biochemical
Experimental: as §1, §2

T2 sequence (P60472 whole entry): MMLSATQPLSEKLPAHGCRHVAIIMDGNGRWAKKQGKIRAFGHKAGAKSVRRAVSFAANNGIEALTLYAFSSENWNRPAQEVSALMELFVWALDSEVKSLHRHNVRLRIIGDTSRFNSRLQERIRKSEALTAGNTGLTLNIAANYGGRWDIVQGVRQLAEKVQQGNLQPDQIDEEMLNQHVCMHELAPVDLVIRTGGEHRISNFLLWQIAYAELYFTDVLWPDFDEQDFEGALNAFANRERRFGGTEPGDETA

Row | Compound | IC50 [3] | MIC90 [5] | IC50 [6] | MIC90 [4] | also measured
1 | O=C(Nc1cccc(C2=NCCCN2)c1)c1ccc(-c2ccc(C(=O)Nc3cccc(C4=NCCCN4)c3)cc2)cc1 [BPH-1503] | – | – | – | – | DNA binding (in words) [1]: binds to DNA; also recorded: strong DNA binding; shift in Tmax of DNA melting (DSC) ([1]; 1 mM DNA duplex, 1 mM compound): ~10 °C; concentration inhibiting Mycobacterium tuberculosis [2]: 1 µM
2 | O=P(O)(O)C(O)(Cc1cccc(-c2cccc3c2oc2ccccc23)c1)P(=O)(O)O [Compound 5, reference compound] | 350 nM | – | – | – | S. aureus MIC90 [4]: >32 µg/mL; E. coli MIC90 [5]: >32 µg/mL; IC50 ([6]; read-out: E. coli UPPS IC50): 280 nM
3 | CCCCCCCCCCCCOc1cccc(O)c1C(=O)O [Compound 11, (Dodecyloxy)-6-hydroxybenzoic acid] | 1700 nM | > 32 µg/mL | 2200 nM | – | –
4 | CCCCCCCCCCOc1cccc(C(=O)Nc2ccc([N+](=O)[O-])cc2C(=O)O)c1 [Compound 12, 2-(3-(Decyloxy)benzamido)-5-nitrobenzoic acid] | 490 nM | > 32 µg/mL | 3000 nM | > 32 µg/mL | –
5 | CCCCCCCCOc1cccc(COc2ccc(Br)cc2P(=O)(O)O)c1 [Compound 13, (5-bromo-2-((3-(octyloxy)benzyl)oxy)phenyl)phosphonic acid] | 2500 nM | > 32 µg/mL | 920 nM | 32 µg/mL (≈ 67.9 µM) | –
6 | O=C(Nc1cccc(C2=NCCN2)c1)c1ccc(C(=O)Nc2cccc(C3=NCCN3)c2)c([N+](=O)[O-])c1 [Compound 16, N^1, N^4-bis(3-(4,5-dihydro-1H-imidazol-2-yl)phenyl)-2-nitroterephthalamide] | 4900 nM | 8 µg/mL (≈ 16.1 µM) | 4800 nM | > 32 µg/mL | –
7 | O=C(Nc1cccc(C2=NCCN2)c1)c1ccc(-c2ccc(C(=O)Nc3cccc(C4=NCCN4)c3)cc2)cc1 [Compound 17, N^4, N^4′-bis(3-(4,5-dihydro-1H-imidazol-2-yl)phenyl)-[1,1′-biphenyl]-4,4′-dicarboxamide] | – | 4 µg/mL (≈ 7.57 µM) | – | 0.25 µg/mL (≈ 0.473 µM) | adverse reactions in treated mice ([7]; 10 mg/kg intraperitoneally once daily, 3 doses): no apparent adverse reactions; mice survived ([7]; 10 mg/kg intraperitoneally once daily, 3 doses, pooled results of 2 experiments): 20/20; activity in mouse model of infection (in words) ([7]; 10 mg/kg once daily, 3 doses total): clear therapeutic activity; also recorded: No mice in the group treated once daily with 10 mg/kg of 17 (3 doses total) died during either experiment; concentration inhibiting Mycobacterium tuberculosis [2]: 0.4 to 0.5 µM; IC50 ([8]; read-out: UPPS IC50): 100 nM; IC50 ([8]; read-out: UPPS inhibition): ~100 nM
8 | NCCc1cc(Br)cc(C#Cc2cccc(C#Cc3cc(Br)cc(CCN)c3)c2)c1 [Compound 18, 2,2′-((1,3-phenylenebis(ethyne-2,1-diyl))bis(3-bromo-5,1-phenylene))diethanamine] | 1400 nM | 8 µg/mL (≈ 15.3 µM) | – | > 32 µg/mL | IC50 ([6]; read-out: E. coli UPPS IC50): 6100 nM
